Patent US20100160369A1, “S1P1 Agonists and Methods of Making And Using” (EXELIXIS, INC., priority 2008, published 2010)

Columns and labels:
S1P1 [1] = biological target: T1, S1P1 (Homo sapiens, UniProt P21453); experiment: Tango β-arrestin Recruitment Assay in HEK293 cells (Assay 2a); assay type: cell-based; parameters: linker with TEV protease (N1a) cleavage site (C); host or cells: HEK293, transiently transfected
Description: For the Tango™ β-arrestin recruitment assay, the cytoplasmic C-terminus of S1P1 is tethered to the tTA transcriptional activator with a linker that contains a cleavage site for the N1a protease from tobacco etch virus (TEV protease). The C-terminus of the human β-arrestin2 protein is fused to TEV protease. Binding of an agonist recruits the β-arrestin-TEV fusion protein to the receptor resulting in cleavage of the linker and release of tTA to enter the nucleus and subsequently activate a tTA-dependent luciferase reporter gene.
Frozen HEK293 cells transiently transfected with receptor cDNAs for S1P1 (Invitrogen) were thawed and suspended in 10 mL of Pro293a-CDM culture medium (Invitrogen) supplemented with 4 mM L-Glutamine (Invitrogen), 1× Pen/Strep (100 units/mL penicillin and 100 μg/mL streptomycin, Invitrogen) and 0.1% fatty acid free BSA (Sigma-Aldrich). Cells were added to the wells of a 384-well white opaque bottom assay plate (PerkinElmer) at 3,000-6,000 cells per well and the plate was incubated for approximately 4 h in a 37° C. incubator. Test compounds were tested at maximum concentrations of 10 μM for the agonist assays. Compounds were diluted in DMSO (10 concentration points, 3-fold each) and added to the assay plate at a 1% final DMSO concentration. For each compound, there were duplicate assay plates and each assay plate had duplicate wells per concentration point. The plate was incubated at 37° C. for 30 min. The efficacy control was 5 μM S1P (Avanti). Following agonist addition, the assay plates were incubated in a 37° C. incubator for 16-18 h. Luciferase assay reagent was added and luminescence measured in an EnVision plate reader (PerkinElmer). To determine agonist activity, percent activity was calculated as [(test compound−background)/(positive control−background)* 100], where background is the luminescence of the DMSO alone control and the positive control is the luminescence from cells incubated with the efficacy control 5 μM S1P. The percent activities were plotted against compound concentration to determine EC50 using XLFit (IDBS).
Assay 1 is the CNG cAMP Assay as described in Biological Example 1. Assay 2a and 2b are the Tango™ β-arrestin Recruitment Assay in HEK293 and U2OS cells, respectively, as described in Biological Example 2. Assay 3a is the hS1P1R GTPγS Binding Assay as described in Biological Example 3. Assay 3b is the GTP-Eu Binding Assay as described in Biological Example 3. EC50's were measured unless otherwise noted. […] In the table, “nt” means the Compound was not tested and “no” means the compound was tested but had no measurable activity under the assay conditions employed.
Target sequence in this assay (P21453 whole entry, the tested form may be a part): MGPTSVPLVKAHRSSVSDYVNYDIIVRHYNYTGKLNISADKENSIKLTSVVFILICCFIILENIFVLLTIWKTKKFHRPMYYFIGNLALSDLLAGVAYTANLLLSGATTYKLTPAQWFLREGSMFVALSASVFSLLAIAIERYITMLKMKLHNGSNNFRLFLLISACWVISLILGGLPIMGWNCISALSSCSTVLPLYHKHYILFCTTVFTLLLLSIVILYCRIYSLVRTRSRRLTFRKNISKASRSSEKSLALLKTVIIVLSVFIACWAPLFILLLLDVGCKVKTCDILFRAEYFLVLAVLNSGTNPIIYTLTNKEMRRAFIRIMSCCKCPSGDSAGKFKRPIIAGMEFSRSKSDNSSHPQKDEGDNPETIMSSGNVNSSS
Target sequence in this assay (P32121 whole entry partner, the tested form may be a part): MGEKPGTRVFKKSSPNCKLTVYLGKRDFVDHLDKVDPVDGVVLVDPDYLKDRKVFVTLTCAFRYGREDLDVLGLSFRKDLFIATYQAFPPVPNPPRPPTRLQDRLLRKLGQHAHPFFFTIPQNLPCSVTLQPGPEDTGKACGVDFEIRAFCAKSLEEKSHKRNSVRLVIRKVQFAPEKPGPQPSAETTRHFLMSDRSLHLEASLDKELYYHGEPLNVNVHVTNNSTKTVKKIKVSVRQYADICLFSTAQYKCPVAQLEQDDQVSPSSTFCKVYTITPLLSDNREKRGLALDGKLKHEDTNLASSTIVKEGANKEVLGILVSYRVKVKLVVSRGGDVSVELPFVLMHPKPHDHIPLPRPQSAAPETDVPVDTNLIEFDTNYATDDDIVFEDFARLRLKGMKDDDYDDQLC

S1P1 [2] = biological target: T1, S1P1; experiment: CNG cAMP Assay (Assay 1); assay type: cell-based; parameters: host or cells: HEK293 cells expressing the CNG channel; details: read-out: Assay 1 EC50
In short: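 cAMP-gated CNG membrane-potential read-out (350/590 nm, T90/T0 ratio) in S1P1/CNG HEK293 cells after 90 min with compound plus NECA 500 nM, S1P 10 nM (EC95), Ro 20-1724 25 μM. Ten 3-fold points from 10 μM, 1.8% DMSO; percent activity vs NECA-only control gives EC50.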
Target sequence in this assay (P21453 whole entry, the tested form may be a part): as the sequence (P21453 whole entry, the tested form may be a part) above

[3] = Tango β-arrestin Recruitment Assay, read-out: Assay 2a EC50
[4] = Tango β-arrestin, footnote 1: Relative EC50 was measured, read-out: Assay 2a Relative EC50

For `CS(=O)(=O)Cc1ccc(-c2noc(-c3cn4cc(C(F)(F)F)cc(Cl)c4n3)n2)c(Cl)c1` [Example 275, 8-chloro-2-(3-{2-chloro-4-[(methylsulfonyl)methyl]phenyl}-1,2,4-oxadiazol-5-yl)-6-(trifluoromethyl)imidazo[1,2-a]pyridine], the EC50 (S1P1 [1]; [3]) was 100 to 500 nM and the EC50 (S1P1 [2]) was ≤ 100 nM.
For `CC(Cc1cc(Cl)c(-c2noc(-c3cn4cc(C(F)(F)F)cc(Cl)c4n3)n2)cc1F)C(=O)O` (stereo not shown) [Example 203, 3-(5-chloro-4-{5-[8-chloro-6-(trifluoromethyl)imidazo[1,2-a]pyridin-2-yl]-1,2,4-oxadiazol-3-yl}-2-fluorophenyl)-2-methylpropanoic acid], the EC50 (S1P1 [1]; [3]) was 100 to 500 nM and the EC50 (S1P1 [2]) was ≤ 100 nM.
With `Cc1cc(Cl)c2nc(-c3nc(-c4cc(F)c(CCC(=O)O)cc4Cl)no3)cn2c1` [Entry 28] the EC50 (S1P1 [1]; [3]) was ≤ 100 nM and the EC50 (S1P1 [2]) was ≤ 100 nM.
With `Fc1ccccc1-c1noc(-c2cn3cc(C(F)(F)F)cc(Cl)c3n2)n1` [Example 142, 8-chloro-2-[3-(2-fluorophenyl)-1,2,4-oxadiazol-5-yl]-6-(trifluoromethyl)imidazo[1,2-a]pyridine] the EC50 (S1P1 [1]; [3]) was 500 to 1000 nM and the EC50 (S1P1 [2]) was 100 to 500 nM.
With `O=C(O)CCc1cc(Cl)c(-c2noc(-c3cn4cc([N+](=O)[O-])cc(Cl)c4n3)n2)cc1F` [Entry 36] the EC50 (S1P1 [1]; [3]) was 100 to 500 nM and the EC50 (S1P1 [2]) was ≤ 100 nM.
With `O=C(O)CCc1cc(Cl)c(-c2nnc(-c3cn4cc(C(F)(F)F)cc(Cl)c4n3)o2)cc1F` [Example 282, 3-(5-chloro-4-{5-[8-chloro-6-(trifluoromethyl)imidazo[1,2-a]pyridin-2-yl]-1,3,4-oxadiazol-2-yl}-2-fluorophenyl)propanoic acid] the EC50 (S1P1 [1]; [3]) was ≤ 100 nM and the EC50 (S1P1 [2]) was ≤ 100 nM.
For `O=C(O)[C@H]1C[C@H](Oc2ccc(-c3noc(-c4cn5cc(C(F)(F)F)cc(Cl)c5n4)n3)c(Cl)c2)CN1` [Example 97, (4S)-4-[(3-chloro-4-{5-[8-chloro-6-(trifluoromethyl)imidazo[1,2-a]pyridin-2-yl]-1,2,4-oxadiazol-3-yl}phenyl)oxy]-D-proline], the EC50 (S1P1 [1]; [3]) was ≤ 100 nM and the EC50 (S1P1 [2]) was ≤ 100 nM.
For `O=C(O)C(O)COc1cc(Cl)c(-c2noc(-c3cn4cc(C(F)(F)F)cc(Cl)c4n3)n2)cc1Cl` (stereo not shown) [Entry 58], the EC50 (S1P1 [1]; [3]) was ≤ 100 nM.
For `OCCOc1c(Cl)cc(-c2noc(-c3cn4cc(C(F)(F)F)cc(Cl)c4n3)n2)cc1Cl` [Example 280, 2-[(2,6-dichloro-4-{5-[8-chloro-6-(trifluoromethyl)imidazo[1,2-a]pyridin-2-yl]-1,2,4-oxadiazol-3-yl}phenyl)oxy]ethanol], the EC50 (S1P1 [1]; [3]) was ≤ 100 nM.
For `OCCNc1ccc(-c2noc(-c3cn4cc(C(F)(F)F)cc(Cl)c4n3)n2)c(Cl)c1` [Example 115, 2-[(3-chloro-4-{5-[8-chloro-6-(trifluoromethyl)imidazo[1,2-a]pyridin-2-yl]-1,2,4-oxadiazol-3-yl}phenyl)amino]ethanol], the EC50 (S1P1 [1]; [3]) was ≤ 100 nM.
`N#CC(CC(=O)O)c1ccc(-c2noc(-c3cn4cc(C(F)(F)F)cc(Cl)c4n3)n2)c(Cl)c1` (stereo not shown) [Example 267, 3-(3-chloro-4-{5-[8-chloro-6-(trifluoromethyl)imidazo[1,2-a]pyridin-2-yl]-1,2,4-oxadiazol-3-yl}phenyl)-3-cyanopropanoic acid] was tested, and the EC50 (S1P1 [1]; [3]) was 100 to 500 nM and the EC50 (S1P1 [2]) was ≤ 100 nM.
`OCCC(O)c1ccc(-c2noc(-c3cn4cc(C(F)(F)F)cc(Cl)c4n3)n2)c(Cl)c1` (stereo not shown) [Example 272, 1-(3-chloro-4-{5-[8-chloro-6-(trifluoromethyl)imidazo[1,2-a]pyridin-2-yl]-1,2,4-oxadiazol-3-yl}phenyl)propane-1,3-diol] was tested, and the EC50 (S1P1 [1]; [3]) was 100 to 500 nM and the EC50 (S1P1 [2]) was ≤ 100 nM.
With `O=C(O)CCc1cc(Cl)c(-c2noc(-c3cn4cc(Br)cc(Br)c4n3)n2)cc1F` [Entry 71] the EC50 (S1P1 [1]; [3]) was ≤ 100 nM.
`Cc1ccc(Oc2cc(Cl)c3nc(-c4nc(-c5cc(F)c(CCC(=O)O)cc5Cl)no4)cn3c2)cc1` [Entry 67] was tested, and the EC50 (S1P1 [1]; [3]) was ≤ 100 nM.
In the case of `OCCOc1ccc(-c2nnc(-c3cn4cc(C(F)(F)F)cc(Cl)c4n3)s2)c(Cl)c1` [Example 243, 2-[(3-chloro-4-{5-[8-chloro-6-(trifluoromethyl)imidazo[1,2-a]pyridin-2-yl]-1,3,4-thiadiazol-2-yl}phenyl)oxy]ethanol], the EC50 (S1P1 [1]; [3]) is reported as 100 to 500 nM and the EC50 (S1P1 [2]) is reported as ≤ 100 nM.
`Oc1cc(Cl)c(-c2noc(-c3cn4cc(C(F)(F)F)cc(Cl)c4n3)n2)cc1Cl` [Example 191, 2,5-dichloro-4-{5-[8-chloro-6-(trifluoromethyl)imidazo[1,2-a]pyridin-2-yl]-1,2,4-oxadiazol-3-yl}phenol] was tested, and the EC50 (S1P1 [1]; [3]) was ≤ 100 nM and the EC50 (S1P1 [2]) was ≤ 100 nM.
In the case of `OC(CF)COc1cc(Cl)c(-c2noc(-c3cn4cc(C(F)(F)F)cc(Br)c4n3)n2)cc1Cl` (stereo not shown) [Example 110, 1-[(4-{5-[8-bromo-6-(trifluoromethyl)imidazo[1,2-a]pyridin-2-yl]-1,2,4-oxadiazol-3-yl}-2,5-dichlorophenyl)oxy]-3-fluoropropan-2-ol], the EC50 (S1P1 [1]; [3]) is reported as ≤ 100 nM.
With `COCCOc1cc(Cl)c(-c2noc(-c3cn4cc(C(F)(F)F)cc(Cl)c4n3)n2)cc1Cl` [Entry 76] the EC50 (S1P1 [1]; [3]) was ≤ 100 nM.
With `Cc1cc(CC(C)C(=O)O)ccc1-c1noc(-c2cn3cc(C(F)(F)F)cc(Br)c3n2)n1` (stereo not shown) [Example 173, 3-(4-{5-[8-bromo-6-(trifluoromethyl)imidazo[1,2-a]pyridin-2-yl]-1,2,4-oxadiazol-3-yl}-3-methylphenyl)-2-methylpropanoic acid] the EC50 (S1P1 [1]; [3]) was 100 to 500 nM and the EC50 (S1P1 [2]) was ≤ 100 nM.
For `N#Cc1cc(Br)c2nc(-c3nc(-c4cc(F)c(CCC(=O)O)cc4Cl)no3)cn2c1` [Entry 47], the EC50 (S1P1 [1]; [3]) was 100 to 500 nM and the EC50 (S1P1 [2]) was ≤ 100 nM.
For `O=C(O)CCc1c(Cl)cc(-c2nc(-c3cn4cc(C(F)(F)F)cc(Cl)c4n3)no2)cc1Cl` [Example 314, 3-(2,6-dichloro-4-{3-[8-chloro-6-(trifluoromethyl)imidazo[1,2-a]pyridin-2-yl]-1,2,4-oxadiazol-5-yl}phenyl)propanoic acid], the EC50 (S1P1 [1]; [3]) was ≤ 100 nM and the EC50 (S1P1 [2]) was ≤ 100 nM.
With `O=C(O)CCc1cc(Cl)c(-c2noc(-c3cn4cc(I)ccc4n3)n2)cc1F` [Entry 31] the EC50 (S1P1 [1]; [3]) was ≤ 100 nM and the EC50 (S1P1 [2]) was ≤ 100 nM.
For `CC(Cc1cc(Cl)c(-c2noc(-c3cn4cc(C(F)(F)F)cc(Br)c4n3)n2)cc1Cl)C(=O)O` (stereo not shown) [Example 225, 3-(4-{5-[8-bromo-6-(trifluoromethyl)imidazo[1,2-a]pyridin-2-yl]-1,2,4-oxadiazol-3-yl}-2,5-dichlorophenyl)-2-methylpropanoic acid], the EC50 (S1P1 [1]; [4]) was 100 to 500 nM.
Work on `CC(Cc1cc(Cl)c(-c2noc(-c3cn4cc(C(F)(F)F)cc(Cl)c4n3)n2)cc1Cl)C(=O)O` (stereo not shown) [Example 190, 3-(2,5-dichloro-4-{5-[8-chloro-6-(trifluoromethyl)imidazo[1,2-a]pyridin-2-yl]-1,2,4-oxadiazol-3-yl}phenyl)-2-methylpropanoic acid] yielded an EC50 (S1P1 [1]; [4]) of 100 to 500 nM.
In the case of `CC(O)COc1c(Cl)cc(-c2noc(-c3cn4cc(C(F)(F)F)cc(Cl)c4n3)n2)cc1Cl` (stereo not shown) [Example 104, 1-[(2,6-dichloro-4-{5-[8-chloro-6-(trifluoromethyl)imidazo[1,2-a]pyridin-2-yl]-1,2,4-oxadiazol-3-yl}phenyl)oxy]propan-2-ol], the EC50 (S1P1 [1]; [3]) is reported as ≤ 100 nM.
With `OCCNCc1cc(Cl)c(-c2noc(-c3cn4cc(C(F)(F)F)cc(Cl)c4n3)n2)cc1Cl` [Example 138, 2-{[(2,5-dichloro-4-{5-[8-chloro-6-(trifluoromethyl)imidazo[1,2-a]pyridin-2-yl]-1,2,4-oxadiazol-3-yl}phenyl)methyl]amino}ethanol] the EC50 (S1P1 [1]; [4]) was 100 to 500 nM.
`CC(Cc1cc(Cl)c(-c2nc(-c3cn4cc(C(F)(F)F)cc(Cl)c4n3)no2)cc1Cl)C(=O)O` (stereo not shown) [Example 241, 3-(2,5-dichloro-4-{3-[8-chloro-6-(trifluoromethyl)imidazo[1,2-a]pyridin-2-yl]-1,2,4-oxadiazol-5-yl}phenyl)-2-methylpropanoic acid] was tested, and the EC50 (S1P1 [1]; [3]) was ≤ 100 nM.
In the case of `CC(=O)OCCOc1c(Cl)cc(-c2noc(-c3cn4cc(C(F)(F)F)cc(Cl)c4n3)n2)cc1Cl` [Example 279, 2-[(2,6-dichloro-4-{5-[8-chloro-6-(trifluoromethyl)imidazo[1,2-a]pyridin-2-yl]-1,2,4-oxadiazol-3-yl}phenyl)oxy]ethyl acetate], the EC50 (S1P1 [1]; [3]) is reported as 100 to 500 nM.
